Reference: ChEMBL document CHEMBL2046410, “Computational design and discovery of "minimally structured" hERG blockers” (J Med Chem, 2012)

Each compound was assayed against Voltage-gated inwardly rectifying potassium channel KCNH2 (Homo sapiens, UniProt Q12809) (assay: Inhibition of human ERG expressed in HEK cells by patch clamp assay). Settings: read-out: IC50.
Assay type: cell-based, HEK293

Voltage-gated inwardly rectifying potassium channel KCNH2, sequence (Q12809 whole entry): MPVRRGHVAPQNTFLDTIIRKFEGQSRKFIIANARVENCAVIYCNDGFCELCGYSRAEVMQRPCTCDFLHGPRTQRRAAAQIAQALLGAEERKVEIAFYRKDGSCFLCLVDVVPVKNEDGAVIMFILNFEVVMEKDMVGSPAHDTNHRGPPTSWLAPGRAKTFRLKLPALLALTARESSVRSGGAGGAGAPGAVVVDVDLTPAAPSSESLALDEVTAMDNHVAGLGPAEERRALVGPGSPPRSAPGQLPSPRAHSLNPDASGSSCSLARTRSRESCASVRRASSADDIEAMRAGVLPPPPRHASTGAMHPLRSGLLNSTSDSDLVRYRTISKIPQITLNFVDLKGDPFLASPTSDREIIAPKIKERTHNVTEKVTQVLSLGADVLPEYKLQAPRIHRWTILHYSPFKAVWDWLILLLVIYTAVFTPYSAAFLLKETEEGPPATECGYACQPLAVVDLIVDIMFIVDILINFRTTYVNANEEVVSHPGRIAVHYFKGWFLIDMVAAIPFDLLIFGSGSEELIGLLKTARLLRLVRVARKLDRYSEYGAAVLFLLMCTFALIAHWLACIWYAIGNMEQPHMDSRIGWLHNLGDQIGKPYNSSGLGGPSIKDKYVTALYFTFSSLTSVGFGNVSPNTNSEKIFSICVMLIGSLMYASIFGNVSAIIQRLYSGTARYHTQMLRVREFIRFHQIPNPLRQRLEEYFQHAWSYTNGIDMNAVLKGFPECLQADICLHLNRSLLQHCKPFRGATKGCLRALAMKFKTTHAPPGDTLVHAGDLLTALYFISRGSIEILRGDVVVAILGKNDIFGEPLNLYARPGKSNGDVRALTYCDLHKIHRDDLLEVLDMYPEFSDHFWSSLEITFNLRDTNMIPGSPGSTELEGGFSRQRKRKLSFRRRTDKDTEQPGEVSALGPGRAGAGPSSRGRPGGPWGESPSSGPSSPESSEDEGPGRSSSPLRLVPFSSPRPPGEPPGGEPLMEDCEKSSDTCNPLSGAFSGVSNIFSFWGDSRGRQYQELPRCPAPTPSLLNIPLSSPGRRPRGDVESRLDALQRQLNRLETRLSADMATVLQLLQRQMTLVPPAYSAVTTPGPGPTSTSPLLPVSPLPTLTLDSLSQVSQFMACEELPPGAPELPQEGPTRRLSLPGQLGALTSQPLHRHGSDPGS

| SMILES | IC50 [nM] |
| --- | --- |
| c1ccc(CCCNCCN(c2ccccc2)c2ccccc2)cc1 | 580 |
| c1ccc(CCNCCC(c2ccccc2)c2ccccc2)cc1 | 2790 |
| O=C(CCc1ccccc1)NCCN(c1ccc(F)cc1)c1ccc(F)cc1 | 192 |
| c1ccc(CCCNCCC(c2ccccc2)c2ccccc2)cc1 | 17 |
| Fc1ccc(N(CCNCCCc2ccccc2)c2ccc(F)cc2)cc1 | 2.4 |
| O=C(Cc1ccccc1)NCCN(c1ccccc1)c1ccccc1 | 7860 |

Same assay, conditions: read-out: pIC50 (converted)

| SMILES | IC50 [nM] |
| --- | --- |
| c1ccc(CCNCCC(c2ccccc2)c2ccccc2)cc1 | 3160 |
